Data as given in patent US8465726B2, “Stilbene derivatives and their use for binding and imaging amyloid plaques” (The Trustees of the University of Pennsylvania, priority 2004, dated 2013).

Experiments:
[1] = Organ distribution in normal mice after iv injection; type: in vivo; settings: ICR mice
Procedure: The organs of interest were removed and weighed, and the radioactivity was assayed for radioactivity content with an automatic gamma counter. The percentage dose per organ was calculated by a comparison of the tissue counts to suitably diluted aliquots of the injected material. Total activities of blood were calculated under the assumption that they were 7% of the total body weight. The % dose/g of samples was calculated by comparing the sample counts with the count of the diluted initial dose.

[2] = tested on: amyloid deposits / Aβ plaques in the brain; settings: cited from earlier work

| Structure (SMILES) | Biodistribution, Blood ([1]; 2 min after iv injection) | Biodistribution, Bone ([1]; 2 min after iv injection) | Biodistribution, Brain ([1]; 2 min after iv injection) | Biodistribution, Blood ([1]; 30 min after iv injection) | Biodistribution, Bone ([1]; 30 min after iv injection) | Biodistribution, Brain ([1]; 30 min after iv injection) | Biodistribution, Blood ([1]; 1 hr after iv injection) | Biodistribution, Bone ([1]; 1 hr after iv injection) | Biodistribution, Brain ([1]; 1 hr after iv injection) | Biodistribution, Blood ([1]; 2 hr after iv injection) | Biodistribution, Bone ([1]; 2 hr after iv injection) | Biodistribution, Brain ([1]; 2 hr after iv injection) | retention in the cortex ([2]; patients with diagnosed mild AD) | accumulation in the frontal cortex ([2]; mild to moderate AD patients, not in age-matched control subjects) | relative residence time of the brain region of interest versus the pons ([2]; AD patients versus comparison subjects, PET) |
| --- | --- | --- | --- | --- | --- | --- | --- | --- | --- | --- | --- | --- | --- | --- | --- |
| CNc1ccc(C=Cc2ccc(OCCOCCF)cc2)cc1 [12a, [4-(2-{4-[2-(2-Fluoro-ethoxy)-ethoxy]-phenyl}-vinyl)-phenyl]-methyl-amine] | 2.64 ± 0.55 % dose/g | 1.89 ± 0.25 % dose/g | 8.14 ± 2.03 % dose/g | 2.42 ± 0.27 % dose/g | 1.40 ± 0.11 % dose/g | 3.00 ± 0.16 % dose/g | 2.04 ± 0.16 % dose/g | 1.71 ± 0.23 % dose/g | 2.60 ± 0.22 % dose/g | 2.77 ± 0.63 % dose/g | 2.88 ± 0.07 % dose/g | 2.14 ± 0.06 % dose/g |  |  |  |
| CNc1ccc(C=Cc2ccc(OCCOCCOCCOCCF)cc2)cc1 [12c, (4-{2-[4-(2-{2-[2-(2-Fluoro-ethoxy)-ethoxy]-ethoxy}-ethoxy)-phenyl]-vinyl}-phenyl)-methyl-amine] | 3.22 ± 0.20 % dose/g | 2.31 ± 0.12 % dose/g | 6.59 ± 0.19 % dose/g | 1.88 ± 0.08 % dose/g | 1.00 ± 0.02 % dose/g | 1.27 ± 0.03 % dose/g | 1.81 ± 0.48 % dose/g | 0.98 ± 0.27 % dose/g | 1.20 ± 0.10 % dose/g | 1.60 ± 0.12 % dose/g | 1.50 ± 0.05 % dose/g | 1.21 ± 0.06 % dose/g |  |  |  |
| CNc1ccc(C=Cc2ccc(OCCOCCOCCOCCOCCF)cc2)cc1 [12d, [4-(2-{4-[2-(2-{2-[2-(2-Fluoro-ethoxy)-ethoxy]-ethoxy}-ethoxy)-ethoxy]-phenyl}-vinyl)-phenyl]-methyl-amine] | 4.99 ± 0.38 % dose/g | 2.24 ± 0.21 % dose/g | 7.30 ± 1.05 % dose/g | 4.66 ± 0.06 % dose/g | 2.29 ± 0.21 % dose/g | 2.43 ± 0.03 % dose/g | 2.89 ± 0.11 % dose/g | 1.66 ± 0.01 % dose/g | 1.77 ± 0.11 % dose/g | 2.59 ± 0.18 % dose/g | 2.35 ± 0.27 % dose/g | 1.62 ± 0.03 % dose/g |  |  |  |
| [11CH3]Nc1ccc(-c2nc3ccc(O)cc3s2)cc1 [[^11C]6-OH-BTA-1] |  |  |  |  |  |  |  |  |  |  |  |  | marked retention |  |  |
| [11CH3]Nc1ccc(/C=C/c2ccc(O)cc2)cc1 [[^11C]SB-13] |  |  |  |  |  |  |  |  |  |  |  |  |  | high accumulation |  |
| CNc1ccc(C=Cc2ccc(OCCOCCOCC[18F])cc2)cc1 [[^18F]12b, [^18F]{4-[2-(4-{2-[2-(2-Fluoro-ethoxy)-ethoxy]-ethoxy}-phenyl)-vinyl]-phenyl}-methyl-amine] |  |  |  |  |  |  |  |  |  |  | 2.74 % dose/g |  |  |  |  |
| CC(=C(C#N)C#N)c1ccc2cc(N(C)CCF)ccc2c1 [[^18F]FDDNP] |  |  |  |  |  |  |  |  |  |  |  |  |  |  | significantly higher in AD patients |
